Bridge positions count the residues as written; N and C are the ends. Peptide text beside a SMILES is read from it.
Tests used:
[1] = Stability of Linaclotide solutions with and without ethanol, % multimers by HPLC-SEC; assay type: physicochemical; settings: RT, sealed vials
Method: Solutions of Linaclotide in: (A): a 1:1 mixture of 0.2% AcOH: ACN or (B): a 1:1:9.5 mixture of 0.2% AcOH:ACN:EtOH, were stored for 12 days at room temperature (RT) in sealed vials. The solutions were analysed by (HPLC-size exclusion chromatography) (HPLC-SEC), for % multimers (the major degradants present) content (see table below):
The results are graphically represented in FIG. 6.

[2] = storage for 3 months; 40° C. and 75% relative humidity; from U.S. Pat. No. 8,222,201, Example 3, Table 13; cited from earlier work
[3] = Stability test of solid Linaclotide forms, storage in sealed HDPE bottles at 40° C. and 75% relative humidity, hydrolysis product content; assay type: physicochemical; settings: sealed 45 cc. HDPE bottles
Method: Linaclotide Form III according to the present invention was subjected to a stability test in accordance with U.S. Pat. No. 8,222,201, Example 3 (storage in sealed 45 cc. high density polyethylene bottles at 40° C. and 75% relative humidity).

C[C@@H]1NC(=O)[C@@H]2CCCN2C(=O)[C@H](CC(N)=O)NC(=O)[C@@H]2CSSC[C@H](N)C(=O)N[C@H]3CSSC[C@H](NC1=O)C(=O)N[C@@H]([C@@H](C)O)C(=O)NCC(=O)N[C@H](C(=O)N[C@@H](Cc1ccc(O)cc1)C(=O)O)CSSC[C@H](NC(=O)[C@H](Cc1ccc(O)cc1)NC(=O)[C@H](CCC(=O)O)NC3=O)C(=O)N2 [Linaclotide] (H-CCEYCCNPACTGCY-OH; disulfide 1-6, 2-10, 5-13)
% Multimers according to HPLC-SEC method ([1]; solution (A) without EtOH: 1:1 0.2% AcOH:ACN, Day 0): 1.72% | % Multimers according to HPLC-SEC method ([1]; solution (A) without EtOH: 1:1 0.2% AcOH:ACN, Day 1): 1.87% | % Multimers according to HPLC-SEC method ([1]; solution (A) without EtOH: 1:1 0.2% AcOH:ACN, Day 2): 1.70% | % Multimers according to HPLC-SEC method ([1]; solution (A) without EtOH: 1:1 0.2% AcOH:ACN, Day 5): 3.05% | % Multimers according to HPLC-SEC method ([1]; solution (A) without EtOH: 1:1 0.2% AcOH:ACN, Day 6): 3.75% | % Multimers according to HPLC-SEC method ([1]; solution (A) without EtOH: 1:1 0.2% AcOH:ACN, Day 7): 3.83% | % Multimers according to HPLC-SEC method ([1]; solution (A) without EtOH: 1:1 0.2% AcOH:ACN, Day 8): 4.61% | % Multimers according to HPLC-SEC method ([1]; solution (A) without EtOH: 1:1 0.2% AcOH:ACN, Day 11): 6.47% | % Multimers according to HPLC-SEC method ([1]; solution (A) without EtOH: 1:1 0.2% AcOH:ACN, Day 12): 7.18% | % Multimers according to HPLC-SEC method ([1]; solution (B) with EtOH: 1:1:9.5 0.2% AcOH:ACN:EtOH, Day 0): 1.54% | % Multimers according to HPLC-SEC method ([1]; solution (B) with EtOH: 1:1:9.5 0.2% AcOH:ACN:EtOH, Day 1): 1.66% | % Multimers according to HPLC-SEC method ([1]; solution (B) with EtOH: 1:1:9.5 0.2% AcOH:ACN:EtOH, Day 2): 2.17% | % Multimers according to HPLC-SEC method ([1]; solution (B) with EtOH: 1:1:9.5 0.2% AcOH:ACN:EtOH, Day 5): 2.34% | % Multimers according to HPLC-SEC method ([1]; solution (B) with EtOH: 1:1:9.5 0.2% AcOH:ACN:EtOH, Day 6): 3.22% | % Multimers according to HPLC-SEC method ([1]; solution (B) with EtOH: 1:1:9.5 0.2% AcOH:ACN:EtOH, Day 7): 3.54% | % Multimers according to HPLC-SEC method ([1]; solution (B) with EtOH: 1:1:9.5 0.2% AcOH:ACN:EtOH, Day 8): 3.64% | % Multimers according to HPLC-SEC method ([1]; solution (B) with EtOH: 1:1:9.5 0.2% AcOH:ACN:EtOH, Day 11): 3.62% | % Multimers according to HPLC-SEC method ([1]; solution (B) with EtOH: 1:1:9.5 0.2% AcOH:ACN:EtOH, Day 12): 4.88%

C[C@@H]1NC(=O)[C@@H]2CCCN2C(=O)[C@H](CC(N)=O)NC(=O)[C@@H]2CSSC[C@H](N)C(=O)N[C@H]3CSSC[C@H](NC1=O)C(=O)N[C@@H]([C@@H](C)O)C(=O)NCC(=O)N[C@H](C(=O)N[C@@H](Cc1ccc(O)cc1)C(=O)O)CSSC[C@H](NC(=O)[C@H](Cc1ccc(O)cc1)NC(=O)[C@H](CCC(=O)O)NC3=O)C(=O)N2 [Form alpha, Linaclotide] (H-CCEYCCNPACTGCY-OH; disulfide 1-6, 2-10, 5-13)
hydrolysis product (L-Asp Linaclotide impurity) content [2]: 5.7 wt %

C[C@@H]1NC(=O)[C@@H]2CCCN2C(=O)[C@H](CC(N)=O)NC(=O)[C@@H]2CSSC[C@H](N)C(=O)N[C@H]3CSSC[C@H](NC1=O)C(=O)N[C@@H]([C@@H](C)O)C(=O)NCC(=O)N[C@H](C(=O)N[C@@H](Cc1ccc(O)cc1)C(=O)O)CSSC[C@H](NC(=O)[C@H](Cc1ccc(O)cc1)NC(=O)[C@H](CCC(=O)O)NC3=O)C(=O)N2 [Linaclotide Form III, Linaclotide] (H-CCEYCCNPACTGCY-OH; disulfide 1-6, 2-10, 5-13)
Linaclotide hydrolysis product (L-Asp Linaclotide impurity) content ([3]; after 4 weeks): 0.22% | Linaclotide hydrolysis product (L-Asp Linaclotide impurity) content ([3]; extrapolated to 3 months): 0.45 wt %
